Test results from patent US7915227B2, “Pharmaceutical formulations employing short-chain sphingolipids and their use” (Het Nederlands Kanker Instituut, priority 2003, dated 2011).

Key:
BAEC = assay: Doxorubicin uptake by cultured BAEC; assay type: cell-based; conditions: lipid 10 μM, doxorubicin 50 μM simultaneously, 60 minutes, uptake in the absence of lipid = 100%
Method: A range of glycosphingolipids and sphingomyelins having different structures were also studied. The data are summarised in the following tables, and are expressed as a percentage (+/−SD) of doxorubicin uptake by cultured BAEC, as compared to drug uptake in the absence of lipid. Glycosphingolipids and sphingomyelins were used at 10 μM. Doxorubicin was administered simultaneously at 50 μM. After 60 minutes, cells were washed and cellular doxorubicin contents were determined fluorimetrically. Background fluorescence was subtracted from all values and all data were corrected for protein contents. Each data point is the average value of at least three independent experiments, but some lipids were assayed in 10 or more independent experiments. For each experiment 4, 6 or 8 wells with cells were treated identically and the data were then averaged (=1 experiment).

A431 cells [1] = assay: Cellular doxorubicin uptake; assay type: cell-based, human; conditions: 15 μM co-administered lipid, within an hour, control conditions = 100%
Method: A431 (adherent human epidermoid carcinoma cells) were cultured in Dulbecco's modified Eagle medium (DMEM), supplemented with 10% (v/v) fetal calf serum, 100 units/ml penicillin, 100 μg/ml streptomycin and 4 mM L-glutamine. Cells were sub-cultured once a week by trypsinization and maintained in a water-saturated atmosphere of 5% CO2 at 37° C. All studies were performed at a confluency of 80-90%.
For cellular doxorubicin accumulation measurements, A431 cells were cultured in flat-bottom 96-well plates. At confluency, cells were changed to serum-free medium and exposed to 50 μM free or to 20 μM liposomal doxorubicin. After extensive washing, cells were lysed in 100 μl of 1% (w/v) Triton X-100. Native fluorescence intensities were then measured by a Perkin Elmer Victor Wallac II fluorescence microplate reader, using 485 nm and 535 nm filters for excitation and emission, respectively. All values were corrected for background fluorescence. Cellular doxorubicin contents were calculated with the aid of standard amounts, and corrected for differences in protein content, as determined with the BCA assay (see, e.g., Smith et al., 1985).

A431 cells [2] = assay: Membrane leakage assay (LDH release); assay type: cell-based, human; conditions: for LDH release: 100 μM lipid
Method: To investigate (loss of) plasma membrane integrity, the release of the cytosolic enzyme LDH into phenol red-free cell culture medium was monitored. Flat-bottom 96-well plates containing (liposome-treated) A431 cells were centrifuged (2000 rpm, 5 minutes at 20° C.) and 50 μl aliquots of the supernatants were assessed for LDH activity with the CytoTox 96 kit, according the manufacturer's instructions. Values obtained from cells that were lysed in 0.8% Triton X-100 served as positive control. All data were corrected for protein contents, as determined with the BCA assay (see, e.g., Smith et al., 1985).

A431 cells [3] = assay: Cell viability (MTT assay); assay type: cell-based, human; conditions: for viability after 24 hour exposure: 24 hour exposure to 20 μM lipid
Method: For viability assessment, A431 cells were cultured in flat-bottom 96-well plates. After experimental treatments, 100 μg of the mitochondrial dehydrogenase substrate MTT was added to each well (see, e.g., Carmichael et al., 1987). Cells were then incubated for 60 minutes at 37° C. After centrifugation (3000 rpm, 10 minutes at 4° C.) supernatants were removed. The precipitated blue formazan products were then dissolved in 100 μl DMSO, and absorbencies were read in a Bio-Tek Instruments EL 340 photospectrometric microplate reader at 540 nm. Background absorbencies were subtracted and values from wells containing untreated control cells were set at 100% viability.

Compound	doxorubicin uptake, mean % ± SD (sphingomyelins) (BAEC) [%]	doxorubicin uptake, mean % ± SD (glycosphingolipids) (BAEC) [%]	further results
CCCCCCCCCCCCC/C=C/[C@@H](O)[C@H](COP(=O)(O)O)NC(=O)CCCCCCC [C8-Cer-1-P]	122.2 ± 7.2	–	–
CCCCCCCCCCCCC/C=C/[C@@H](O)[C@@H](N)COP(=O)([O-])OCC[N+](C)(C)C [C0-SM (SPC)]	128.3 ± 19.5	–	–
CCCCCCCCCCCCC/C=C/[C@@H](O)[C@@H](N)CO[C@@H]1O[C@H](CO)[C@@H](O)[C@H](O)[C@H]1O [C0-GlcCer]	–	86.7 ± 16.2	–
CCCCCCCCCCCCC/C=C/[C@@H](O)[C@H](CO)NC(=O)CCCCC [C6-Cer]	96.6 ± 17.3	–	–
CCCCCCCCCCCCC/C=C/[C@@H](O)C(N)CO[C@H]1O[C@H](CO)[C@@H](O[C@@H]2O[C@H](CO)[C@H](O)[C@H](O)[C@H]2O)[C@H](O)[C@@H]1O (stereo partly drawn) [C0-LacCer]	–	93.8 ± 4.0	–
CCCCCCCCCCCCC/C=C/[C@@H](OC)[C@H](COP(=O)([O-])OCC[N+](C)(C)C)NC(=O)CCCCCCC [3-O-methyl-C8-SM]	249.8 ± 36.5	–	–
CCCCCCCCCCCCC/C=C/[C@@H](O)[C@@H](N)CO [sphingosine, (2S,3R,4E)-2-amino-4-octadecene-1,3-diol]	100.4 ± 20.3	–	–
CCCCCCCCCCCCC/C=C/[C@@H](O)[C@@H](N)CO[C@@H]1O[C@H](CO)[C@H](O)[C@H](O)[C@H]1O [C0-GalCer]	–	98.2 ± 9.3	–
CCCCCCCCCCCCCC=CC(O)C(COC1OC(CO)C(OC2OC(CO)C(O)C(O)C2O)C(O)C1O)NC(=O)CCCCCCC (stereo not drawn) [C8-LacCer]	–	301.5 ± 41.2	–
CCCCCCCCCCCCC/C=C/[C@@H](O)[C@H](COC1OC(CO)C(O)C(O)C1O)NC(=O)CCCCCCC (stereo partly drawn) [C8-GlcCer, N-octanoyl-glucosylceramide]	–	335.8 ± 88.5	uptake of free doxorubicin (A431 cells [1]): 271.7±58.5%; LDH release (A431 cells [2]): 0.0±0.6%; viability after 24 hour exposure (A431 cells [3]): 71.3±5.3%
CCCCCCCCCCCCCC=CC(O)C(COC1OC(CO)C(O)C(O)C1O)NC(=O)CCCCCCCCCCC (stereo not drawn) [C12-GlcCer]	–	85.6 ± 12.0	–
CCCCCCCCCCCCC/C=C/[C@@H](O)[C@H](COP(=O)([O-])OCC[N+](C)(C)C)NC(=O)CCCCC [C6-SM, N-hexanoyl-sphingomyelin]	330.6 ± 92.3	–	uptake of free doxorubicin (A431 cells [1]): 461.8±126.9%; LDH release (A431 cells [2]): 53.9±7.9%; LDH release (of total LDH activity) (A431 cells [2]; 1 hour incubation with 10 μM lipid, 0.8% Triton X-100 = 100%): 0.5±0.5%; viability after 24 hour exposure (A431 cells [3]): 29.3±5.5%; viable cells (A431 cells [3]; determined 24 hours after a 1 hour incubation with 10 μM lipid): 95.6±19.1%
CCCCCCCCCCCCCC=CC(O)C(COC1OC(CO)C(O)C(O)C1O)NC(=O)CCCCCCC (stereo not drawn) [C8-GalCer]	–	213.7 ± 31.1	–
